Assay results reported in ChEMBL document CHEMBL5465560, “Selectivity Literature for EUbOPEN Chemogenomic Library” (2024).

Legend:
[1] = target: Rho-associated protein kinase 1 (Homo sapiens) (UniProt Q13464); conditions: at 10 µM
Insulin receptor = Insulin receptor (Homo sapiens, UniProt P06213); experiment: Selectivity interaction (Ambit KINOMEscan and KiNATiv profiling in Jurkat cells) EUB0000090b INSR; assay type: cell-based; conditions: at 1 µM
[2] = Selectivity interaction (NMDA Channel site assay : rat brain cortex ) EUB0000877a GRIN1
[3] = target: T1, Ephrin type-B receptor 4 (Homo sapiens) (UniProt P54760); experiment: Selectivity interaction (Kinase panel (Z-LYTE Assay)) EUB0001632a EPHB4; conditions: at 10 µM
T1 sequence (whole entry): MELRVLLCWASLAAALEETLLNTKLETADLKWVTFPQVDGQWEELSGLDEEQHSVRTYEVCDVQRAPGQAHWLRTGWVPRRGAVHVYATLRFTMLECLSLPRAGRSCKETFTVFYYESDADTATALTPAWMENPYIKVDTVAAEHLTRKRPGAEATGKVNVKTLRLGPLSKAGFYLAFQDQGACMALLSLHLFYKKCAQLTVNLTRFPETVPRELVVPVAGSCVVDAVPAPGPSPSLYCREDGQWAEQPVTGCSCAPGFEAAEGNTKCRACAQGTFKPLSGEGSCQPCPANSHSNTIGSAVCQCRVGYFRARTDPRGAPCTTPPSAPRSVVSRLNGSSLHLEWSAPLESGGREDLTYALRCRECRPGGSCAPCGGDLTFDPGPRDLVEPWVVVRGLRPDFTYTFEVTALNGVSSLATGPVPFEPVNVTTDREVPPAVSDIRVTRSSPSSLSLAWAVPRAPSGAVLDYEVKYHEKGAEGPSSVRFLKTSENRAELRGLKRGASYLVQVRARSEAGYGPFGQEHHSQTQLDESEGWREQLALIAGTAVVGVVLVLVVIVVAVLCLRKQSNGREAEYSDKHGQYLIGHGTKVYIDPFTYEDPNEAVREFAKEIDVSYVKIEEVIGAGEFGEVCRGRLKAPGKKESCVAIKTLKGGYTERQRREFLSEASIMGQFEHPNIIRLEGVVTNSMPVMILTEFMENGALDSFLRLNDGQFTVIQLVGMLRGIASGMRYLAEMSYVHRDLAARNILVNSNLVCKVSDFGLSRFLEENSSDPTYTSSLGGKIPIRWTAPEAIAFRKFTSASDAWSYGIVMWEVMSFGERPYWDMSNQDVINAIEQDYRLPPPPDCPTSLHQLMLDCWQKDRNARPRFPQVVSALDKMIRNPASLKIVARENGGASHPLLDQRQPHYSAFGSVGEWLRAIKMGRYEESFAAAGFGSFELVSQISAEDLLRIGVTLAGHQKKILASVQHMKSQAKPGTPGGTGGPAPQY

[4] = target: T2, Myosin light chain kinase family member 4 (Homo sapiens) (UniProt Q86YV6); conditions: at 10 µM
T2 sequence (whole entry): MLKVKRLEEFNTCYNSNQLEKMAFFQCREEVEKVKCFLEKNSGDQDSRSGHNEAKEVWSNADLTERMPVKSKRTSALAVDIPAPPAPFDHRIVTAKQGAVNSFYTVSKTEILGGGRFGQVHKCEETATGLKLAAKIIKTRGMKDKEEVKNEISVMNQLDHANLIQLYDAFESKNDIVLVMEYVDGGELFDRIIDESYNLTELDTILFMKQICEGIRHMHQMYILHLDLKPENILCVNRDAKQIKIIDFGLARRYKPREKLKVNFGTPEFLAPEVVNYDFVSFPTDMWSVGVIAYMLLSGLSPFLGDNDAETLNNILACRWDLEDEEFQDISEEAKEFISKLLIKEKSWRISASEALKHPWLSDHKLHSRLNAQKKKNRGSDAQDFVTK

[5] = test system: Epidermal growth factor receptor (Homo sapiens), P00533 [UNDEFINED MUTATION]; experiment: Selectivity interaction (KinomeScan (DiscoverX)) EUB0000045b EGFR; conditions: at 10 µM
[6] = target: T3, Serine/threonine-protein kinase Nek9 (Homo sapiens) (UniProt Q8TD19); experiment: Selectivity interaction (KinomeScan (DiscoverX)) EUB0000607a NEK9; conditions: at 10 µM
T3 sequence (whole entry): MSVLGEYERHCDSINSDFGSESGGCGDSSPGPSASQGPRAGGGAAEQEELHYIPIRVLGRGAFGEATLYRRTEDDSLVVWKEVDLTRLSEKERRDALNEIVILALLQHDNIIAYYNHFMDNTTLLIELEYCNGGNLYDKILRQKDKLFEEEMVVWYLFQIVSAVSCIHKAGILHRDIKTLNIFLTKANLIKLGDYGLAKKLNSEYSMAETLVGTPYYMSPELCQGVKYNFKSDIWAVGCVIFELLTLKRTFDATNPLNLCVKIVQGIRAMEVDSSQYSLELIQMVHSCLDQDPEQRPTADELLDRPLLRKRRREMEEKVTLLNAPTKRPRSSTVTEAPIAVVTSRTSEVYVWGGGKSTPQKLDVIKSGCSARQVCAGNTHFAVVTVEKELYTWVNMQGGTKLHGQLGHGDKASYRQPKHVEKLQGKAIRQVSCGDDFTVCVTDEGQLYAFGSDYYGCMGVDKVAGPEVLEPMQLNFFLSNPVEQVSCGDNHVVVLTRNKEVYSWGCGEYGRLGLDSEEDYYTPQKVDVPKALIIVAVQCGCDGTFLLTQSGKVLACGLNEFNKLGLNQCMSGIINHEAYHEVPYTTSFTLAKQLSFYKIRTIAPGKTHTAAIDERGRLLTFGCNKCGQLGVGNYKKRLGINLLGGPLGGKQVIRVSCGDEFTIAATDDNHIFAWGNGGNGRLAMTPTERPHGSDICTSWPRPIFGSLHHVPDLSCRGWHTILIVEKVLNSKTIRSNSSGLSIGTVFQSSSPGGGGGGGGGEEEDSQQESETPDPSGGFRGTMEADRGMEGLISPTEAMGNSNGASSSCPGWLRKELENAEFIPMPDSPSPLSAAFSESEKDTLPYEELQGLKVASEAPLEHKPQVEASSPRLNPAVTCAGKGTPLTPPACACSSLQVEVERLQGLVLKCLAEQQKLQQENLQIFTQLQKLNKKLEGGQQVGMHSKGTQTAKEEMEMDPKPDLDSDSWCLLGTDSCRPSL

[7] = test system: Tyrosine-protein kinase ABL1 (Homo sapiens), P00519 [F317L]; experiment: Selectivity interaction (KinomeScan (DiscoverX)) EUB0000666a ABL1; conditions: at 10 µM
[8] = target: Serine/threonine-protein kinase PLK3 (Homo sapiens, UniProt Q9H4B4); experiment: Selectivity interaction (KinomeScan (DiscoverX)) EUB0000666a PLK3; conditions: at 10 µM
[9] = target: Ribosomal protein S6 kinase alpha-3 (Homo sapiens, UniProt P51812); experiment: Selectivity interaction (KinomeScan (DiscoverX)) EUB0000666a RPS6KA3; conditions: at 10 µM
Ribosomal protein S6 kinase alpha-3, sequence (P51812 whole entry): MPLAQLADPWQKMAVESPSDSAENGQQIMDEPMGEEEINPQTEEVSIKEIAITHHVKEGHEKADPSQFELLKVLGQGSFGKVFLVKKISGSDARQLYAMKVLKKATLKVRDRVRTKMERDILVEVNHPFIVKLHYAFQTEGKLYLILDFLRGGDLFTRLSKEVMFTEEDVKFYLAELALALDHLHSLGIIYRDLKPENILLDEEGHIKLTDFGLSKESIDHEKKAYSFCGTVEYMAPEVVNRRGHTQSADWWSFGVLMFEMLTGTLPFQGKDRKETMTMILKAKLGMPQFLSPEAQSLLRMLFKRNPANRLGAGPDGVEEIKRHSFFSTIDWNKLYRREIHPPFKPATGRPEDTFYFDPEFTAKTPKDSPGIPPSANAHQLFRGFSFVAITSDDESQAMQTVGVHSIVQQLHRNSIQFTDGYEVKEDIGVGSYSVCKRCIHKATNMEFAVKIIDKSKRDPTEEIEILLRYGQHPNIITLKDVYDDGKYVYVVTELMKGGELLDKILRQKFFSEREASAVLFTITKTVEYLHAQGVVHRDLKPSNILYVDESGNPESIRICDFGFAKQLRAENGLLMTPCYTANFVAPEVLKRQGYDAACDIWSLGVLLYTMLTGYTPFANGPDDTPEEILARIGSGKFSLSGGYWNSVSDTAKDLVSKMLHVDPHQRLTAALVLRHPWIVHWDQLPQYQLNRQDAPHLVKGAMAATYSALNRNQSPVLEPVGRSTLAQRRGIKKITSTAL

Epidermal growth factor receptor (Homo sapiens), P00533 [UNDEFINED MUTATION], sequence (P00533 whole entry, looked up, change not shown): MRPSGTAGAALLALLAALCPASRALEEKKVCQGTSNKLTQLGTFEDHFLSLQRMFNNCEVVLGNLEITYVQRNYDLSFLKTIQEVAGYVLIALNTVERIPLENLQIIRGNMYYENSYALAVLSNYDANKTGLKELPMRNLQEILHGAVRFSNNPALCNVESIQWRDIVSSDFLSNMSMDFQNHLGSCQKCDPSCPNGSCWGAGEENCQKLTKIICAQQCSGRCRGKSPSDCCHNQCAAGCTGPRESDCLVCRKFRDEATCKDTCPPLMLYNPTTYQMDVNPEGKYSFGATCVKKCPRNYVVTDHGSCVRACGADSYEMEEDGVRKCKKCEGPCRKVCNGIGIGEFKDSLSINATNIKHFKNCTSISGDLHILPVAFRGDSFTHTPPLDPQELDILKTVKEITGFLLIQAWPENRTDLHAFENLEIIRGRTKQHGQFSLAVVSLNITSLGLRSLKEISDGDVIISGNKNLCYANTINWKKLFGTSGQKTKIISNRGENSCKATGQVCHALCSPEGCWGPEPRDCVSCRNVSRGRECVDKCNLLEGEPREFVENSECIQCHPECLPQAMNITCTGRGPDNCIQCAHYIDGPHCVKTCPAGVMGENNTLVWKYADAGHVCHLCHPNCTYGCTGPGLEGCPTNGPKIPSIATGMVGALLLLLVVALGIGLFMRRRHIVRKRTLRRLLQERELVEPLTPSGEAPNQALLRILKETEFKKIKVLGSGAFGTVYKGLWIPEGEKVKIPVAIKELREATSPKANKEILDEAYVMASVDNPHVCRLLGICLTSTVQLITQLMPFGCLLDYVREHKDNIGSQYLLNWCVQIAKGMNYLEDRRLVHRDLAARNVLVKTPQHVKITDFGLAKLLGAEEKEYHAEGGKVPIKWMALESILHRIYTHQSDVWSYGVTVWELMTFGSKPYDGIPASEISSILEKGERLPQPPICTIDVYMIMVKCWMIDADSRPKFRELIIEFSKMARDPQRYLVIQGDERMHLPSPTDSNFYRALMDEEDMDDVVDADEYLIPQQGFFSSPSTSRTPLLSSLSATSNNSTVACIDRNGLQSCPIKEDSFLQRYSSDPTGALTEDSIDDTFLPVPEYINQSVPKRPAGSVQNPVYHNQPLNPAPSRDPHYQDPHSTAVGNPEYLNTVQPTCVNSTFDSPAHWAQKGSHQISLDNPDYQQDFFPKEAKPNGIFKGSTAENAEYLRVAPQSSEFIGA
Insulin receptor, sequence (P06213 28-758 limits assumed): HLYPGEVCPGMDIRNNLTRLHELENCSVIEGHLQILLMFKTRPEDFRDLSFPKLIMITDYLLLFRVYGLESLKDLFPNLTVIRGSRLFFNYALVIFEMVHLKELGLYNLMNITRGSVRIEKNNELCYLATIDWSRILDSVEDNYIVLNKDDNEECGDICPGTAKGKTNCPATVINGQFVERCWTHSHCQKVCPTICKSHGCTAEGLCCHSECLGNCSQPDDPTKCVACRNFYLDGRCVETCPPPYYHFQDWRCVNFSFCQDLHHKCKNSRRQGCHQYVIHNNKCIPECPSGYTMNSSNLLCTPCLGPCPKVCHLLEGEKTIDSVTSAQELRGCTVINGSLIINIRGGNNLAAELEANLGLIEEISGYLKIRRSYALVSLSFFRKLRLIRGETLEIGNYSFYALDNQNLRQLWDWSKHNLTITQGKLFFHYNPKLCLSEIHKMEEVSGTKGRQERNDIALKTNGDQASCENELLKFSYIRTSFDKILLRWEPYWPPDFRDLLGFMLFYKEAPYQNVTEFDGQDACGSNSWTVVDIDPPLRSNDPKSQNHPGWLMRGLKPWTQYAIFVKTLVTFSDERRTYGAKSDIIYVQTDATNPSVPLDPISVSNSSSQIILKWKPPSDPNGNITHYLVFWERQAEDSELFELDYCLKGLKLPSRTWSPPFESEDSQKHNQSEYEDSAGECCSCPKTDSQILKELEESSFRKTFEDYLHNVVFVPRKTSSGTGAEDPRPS
Insulin receptor, sequence (P06213 763-1382 limits assumed): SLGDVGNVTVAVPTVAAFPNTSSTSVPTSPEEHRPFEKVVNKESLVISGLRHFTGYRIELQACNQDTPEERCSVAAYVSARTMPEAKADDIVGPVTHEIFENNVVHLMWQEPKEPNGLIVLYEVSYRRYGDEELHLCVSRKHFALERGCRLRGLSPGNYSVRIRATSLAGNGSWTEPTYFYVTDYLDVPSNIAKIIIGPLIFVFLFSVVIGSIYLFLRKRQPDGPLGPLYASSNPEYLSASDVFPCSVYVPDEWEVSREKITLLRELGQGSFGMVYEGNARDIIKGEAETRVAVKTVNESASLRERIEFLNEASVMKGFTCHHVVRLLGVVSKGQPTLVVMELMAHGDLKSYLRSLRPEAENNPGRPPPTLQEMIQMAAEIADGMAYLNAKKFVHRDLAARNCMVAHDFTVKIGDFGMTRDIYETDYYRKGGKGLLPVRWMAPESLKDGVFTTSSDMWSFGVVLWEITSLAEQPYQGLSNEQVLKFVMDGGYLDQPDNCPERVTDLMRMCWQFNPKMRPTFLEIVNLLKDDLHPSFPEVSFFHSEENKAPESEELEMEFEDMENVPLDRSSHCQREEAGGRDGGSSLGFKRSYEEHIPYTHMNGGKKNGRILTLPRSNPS
Rho-associated protein kinase 1 (Homo sapiens), sequence (Q13464 2-1354 limits assumed): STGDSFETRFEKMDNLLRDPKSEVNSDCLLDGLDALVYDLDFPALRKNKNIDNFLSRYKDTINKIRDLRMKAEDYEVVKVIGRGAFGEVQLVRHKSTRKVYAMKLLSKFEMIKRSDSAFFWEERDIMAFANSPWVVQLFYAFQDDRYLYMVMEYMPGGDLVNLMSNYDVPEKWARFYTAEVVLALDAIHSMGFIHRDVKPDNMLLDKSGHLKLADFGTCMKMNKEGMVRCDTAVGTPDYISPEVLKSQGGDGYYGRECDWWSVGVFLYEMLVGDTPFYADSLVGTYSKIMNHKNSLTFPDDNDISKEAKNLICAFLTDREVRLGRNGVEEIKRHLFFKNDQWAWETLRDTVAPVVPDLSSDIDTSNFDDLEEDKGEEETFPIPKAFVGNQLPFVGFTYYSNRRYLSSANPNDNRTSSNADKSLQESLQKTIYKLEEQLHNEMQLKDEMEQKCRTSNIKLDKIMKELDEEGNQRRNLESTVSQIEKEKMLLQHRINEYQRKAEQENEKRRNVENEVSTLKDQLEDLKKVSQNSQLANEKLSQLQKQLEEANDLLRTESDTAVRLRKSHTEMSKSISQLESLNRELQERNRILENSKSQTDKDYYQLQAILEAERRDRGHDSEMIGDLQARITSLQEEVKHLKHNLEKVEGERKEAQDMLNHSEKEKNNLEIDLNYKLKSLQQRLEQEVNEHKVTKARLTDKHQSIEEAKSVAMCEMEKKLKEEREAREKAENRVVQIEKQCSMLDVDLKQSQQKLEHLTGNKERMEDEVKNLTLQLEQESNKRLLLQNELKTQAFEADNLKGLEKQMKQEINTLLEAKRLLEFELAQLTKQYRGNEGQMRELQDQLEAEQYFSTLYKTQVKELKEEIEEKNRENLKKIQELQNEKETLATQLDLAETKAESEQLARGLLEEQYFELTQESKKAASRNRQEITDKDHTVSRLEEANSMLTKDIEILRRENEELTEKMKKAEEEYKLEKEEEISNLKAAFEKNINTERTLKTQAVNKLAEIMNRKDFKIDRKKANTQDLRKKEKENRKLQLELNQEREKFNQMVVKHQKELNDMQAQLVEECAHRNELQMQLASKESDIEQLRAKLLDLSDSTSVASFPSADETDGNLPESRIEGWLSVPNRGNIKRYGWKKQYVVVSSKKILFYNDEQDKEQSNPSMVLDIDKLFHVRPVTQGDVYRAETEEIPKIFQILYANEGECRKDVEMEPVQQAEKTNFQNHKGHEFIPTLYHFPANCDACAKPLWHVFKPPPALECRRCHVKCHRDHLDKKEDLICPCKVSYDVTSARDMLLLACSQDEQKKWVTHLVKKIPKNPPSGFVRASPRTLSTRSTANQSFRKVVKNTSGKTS

Cc1cc([C@@H](C)Nc2ccccc2C(=O)O)c2nc(N3CCOCC3)cc(=O)n2c1 [AZD-6482] showed a % of control [1] of 73%.
Work on CN(C)C/C=C/C(=O)Nc1ccc(C(=O)N2CCCC(Nc3ncc(Cl)c(-c4c[nH]c5ccccc45)n3)C2)cc1 (stereo not given) yielded a % of control (Insulin receptor) of 100%.
CCC(=O)N1CC[C@H](Nc2ncnc3c2CN(c2cnc(OC)c(C(F)(F)F)c2)CC3)C1 [LENIOLISIB] showed an IC50 [2] of over 30 µM.
With Cn1cc(-n2cnc3c(NCc4nc5cc(Cl)c(Cl)cc5[nH]4)nc(N4CCOCC4)nc32)cn1 the % of control [3] was -10.1%.
COCC(=O)NC/C=C/c1ccc2ncnc(Nc3ccc(Oc4ccc(C)nc4)c(C)c3)c2c1 [CP-724714] gave a % of control [4] of 100%.
For C=CC(=O)Nc1cc(-n2c(=O)ccc3cnc4ccc(-c5ccc(NS(C)(=O)=O)cc5)cc4c32)ccc1C, the % of control [5] was 57%.
CNC(=O)Nc1ccc(-c2nc(N3CC4CCC(C3)O4)c3cnn(C4CCC5(CC4)OCCO5)c3n2)cc1 gave a % of control [6] of 100%.
In the case of O=C(NOC[C@H](O)CO)c1ccc(F)c(F)c1Nc1ccc(I)cc1F, the % of control [7] is reported as 86%, the % of control [8] is reported as 100% and the % of control [9] is reported as 100%.
